Reference: paper PMC4929710, “Specificity and mechanism of action of alpha-helical membrane-active peptides interacting with model and biological membranes by single-molecule force spectroscopy” (Scientific Reports, 2016)

Key:
[1] = system: human red blood cells (hRBCs); assay: Hemolytic activity assay (MHC); type: cell-based; details: 1% final hRBCs in PBS (70 μL of 2% + 70 μL peptide), 37 °C, 2 h, absorbance 578 nm
Description: Peptide samples were serially diluted with phosphate-buffered saline (PBS) and added to 96-well plates (round bottom) with 70 μL per well. Healthy human red blood cells (hRBCs) were collected using an anticoagulation tube with EDTAK2 and centrifuged at 1,000 rpm for 5 min. The erythrocytes were washed three times, resuspended in PBS, and then diluted to a concentration of 2% in PBS. A total of 70 μL of 2% erythrocytes was added to each well and incubated at 37 °C for 2 h. The plates were centrifuged for 10 min at 3,000 rpm and the supernatant was transferred to a 96-well plate (flat bottom). The release of hemoglobin was determined by measuring the absorbance of the supernatant at 578 nm. The hemolytic activity was determined as the minimal peptide concentration that caused hemolysis [minimal hemolytic concentration (MHC)]. Erythrocytes in PBS and distilled water were used as the control of 0% and 100% hemolysis, respectively.

bacteria = details: text summary of Table 1, strain not specified
Description: Minimal inhibitory concentrations (MICs) were used to represent the antimicrobial activity of MAPs and were determined by the standard microtiter dilution method. Four bacterial strains including two gram-negative bacterial strains of E. coli and P. aeruginosa, and two gram-positive bacterial strains of S. aureus and S. epidermidis were selected as representative prokaryotes. A single bacterial colony was picked and cultured in Mueller–Hinton (MH) medium for 18–20 h. The bacterial solution was diluted in the same medium for a final inoculum of 5 × 10^5 colony-forming units (CFU)/mL and placed in 96-well plates with 90 μL per well. Then, 10 μL of peptides was added. MICs were determined as the lowest peptide concentration that inhibited bacterial growth after incubation for 24 h at 37 °C. All assays were repeated in triplicate. GM is the geometric mean of MIC values from two gram-positive bacteria strains or two gram-negative bacteria strains in this table.

| Compound | MHC (minimal hemolytic concentration) [1] | MIC value (bacteria) |
| --- | --- | --- |
| CC[C@H](C)[C@H](NC(=O)[C@H](C)NC(=O)[C@H](CCCCN)NC(=O)[C@H](CC(C)C)NC(=O)[C@H](C)NC(=O)[C@@H](NC(=O)[C@H](Cc1cnc[nH]1)NC(=O)[C@H](CC(C)C)NC(=O)[C@@H](NC(=O)[C@@H](NC(=O)[C@H](CCCCN)NC(=O)[C@H](CCCCN)NC(=O)[C@H](C)NC(=O)[C@H](CO)NC(=O)[C@H](CCCCN)NC(=O)[C@H](Cc1ccccc1)NC(=O)[C@@H](NC(=O)[C@H](CCCCN)NC(=O)[C@H](CC(C)C)NC(=O)[C@H](Cc1ccccc1)NC(=O)[C@H](CO)NC(=O)[C@H](CCCCN)NC(=O)[C@H](Cc1c[nH]c2ccccc12)NC(=O)[C@H](CCCCN)NC(C)=O)[C@@H](C)O)[C@@H](C)O)C(C)C)[C@@H](C)O)C(=O)N[C@@H](CO)C(=O)N[C@@H](CO)C(N)=O [Peptide V13K] | 250 µM |  |
| Ac-KWKSFAKTFKSAKKTVAHTALKAISS-NH2 [L6A/L17A] |  | approximately 125 μM |
